What was measured:
[1] = Chromatograms of parotid saliva specimens A, B and C (HPLC with ECD detection); type: in vivo, human; details: Supplement N, one tablet every morning and evening for a month (60 mg CoQ10, 20 mg α-tocopherol per day)
Procedure: In pretreatment of the specimens, 20 μl of plasma and 180 μl of ethanol (Wako Pure Chemical Industries, Ltd.: HPLC grade) were added to an autosampler vial (sampler vial PP 250 μl: Shiseido Co., Ltd.) to have a final ethanol concentration of 90% (V/V), which was centrifuged under cooling by 1000 G for 5 minutes to precipitate proteins. In the case of directly collected saliva, 150 μl of ethanol was added to 50 μl of the specimen to have a final ethanol concentration of 75% (V/V), which was centrifuged under cooling by 1000 G for 5 minutes to precipitate proteins. […]
Ubidecarenol, tocopherol, lycopene and β-carotene can be quantitatively analyzed at 600 mV. […] Therefore, CoQ10 is converted into ubidecarenol by reducing the carbonyl group to the OH group using the above-mentioned commercial online reduction column, and then detected in an oxidation mode using the amperometry-type electrochemical detector 3005 (Shiseido Co., Ltd.) or the pulse-type electrochemical detector 3016 (Shiseido Co., Ltd.) under the HPLC condition shown in FIGS. 1 and 2, allowing the bulk detection as shown in FIGS. 3 and 4. […]

[2] = Transition of the tocopherol level in parotid saliva on ingestion of supplement S; type: in vivo, human; details: two tablets (32.8 mg α-tocopherol) every morning for a week, then two weeks discontinuation, 3 volunteers, FIG. 8
Procedure: 3 volunteers were made to ingest orally two commercial CoQ10 supplement S containing 32.8 mg of tocopherol per two tablets as α-tocopherol at 7:00 every morning continuously for a week, and as a specimen, parotid saliva was collected from PM 4:00 to 5:00, three times, that is, before ingestion and one week after ingestion and two weeks after discontinuation of ingestion. The volunteer had the mouth rinsed with water, and kept quiet on a chair for 5 minutes, while the volunteer accumulated saliva in the oral cavity and discharged to initialize the oral cavity, followed by collecting saliva. […] The ingestion states of the supplement, that is, before ingestion and one week after ingestion, and two weeks after discontinuation of ingestion are arranged on the horizontal axis as points, and the tocopherol concentrations (hereinafter, the measured concentration of tocopherol will be referred to “tocopherol level”) in parotid saliva are arranged on the vertical axis, and transition of the tocopherol level in parotid saliva depending on states of supplements with tocopherol is shown in FIG. 8.

[3] = Transition of the lycopene and β-carotene levels in parotid saliva on ingestion of lycopene + β-carotene MAX1; type: in vivo, human; details: lycopene + β-carotene MAX1, two tablets (20 mg lycopene, 60 mg β-carotene) every morning for a week, then two weeks discontinuation; FIGS. 9 and 10
Procedure: 2 of 3 volunteers were made to ingest orally two commercial supplement lycopene +β-carotene MAX1 (trade name, Minami Healthy Food Co.) containing 10 mg of lycopene and 30 mg of β-carotene per one tablet (20 mg of lycopene and 60 mg of β-carotene per two tablet) at 7:00 every morning continuously for a week, and as a specimen, parotid saliva was collected from PM 4:00 to 5:00, three times, that is, before ingestion and one week after ingestion and two weeks after discontinuation of ingestion. The volunteer had the mouth rinsed with water, and kept quiet on a chair for 5 minutes, while the volunteer accumulated saliva in the oral cavity and discharged to initialize the oral cavity, followed by collecting saliva. […] The ingestion states of the supplement, that is, before ingestion and one week after ingestion, and two weeks after discontinuation of ingestion, are arranged on the horizontal axis as points, and the concentrations of lycopene and β-carotene (hereinafter, the measured concentrations of lycopene and β-carotene will be referred to “lycopene level” and “β-carotene level” respectively) in parotid saliva are arranged on the vertical axis, and transition of the lycopene and β-carotene levels in parotid saliva depending on ingestion of supplements is shown in FIGS. 9 and 10.

[4] = cited from earlier work

Row | Molecule | peak in chromatogram of parotid saliva A (supplement-ingesting volunteer) compared with B (non-ingesting volunteer) [1] | transition of the tocopherol level in parotid saliva [2] | transition of the level in parotid saliva [3] | detection in the parotid saliva ([4]; Nonpatent document No. 1) | correlation between the serum level and the whole saliva level ([4]; Nonpatent documents No. 1 and 2)
1 | Tocopherol | higher peak | increased by ingestion and decreased by discontinuation of ingestion | – | – | –
2 | CC(C)=CCC/C(C)=C/C=C/C(C)=C/C=C/C(C)=C/C=C/C=C(C)/C=C/C=C(C)/C=C/C=C(\C)CCC=C(C)C [lycopene] | – | – | obviously increased in the two volunteers who ingested the supplement compared with one volunteer without ingestion, and decreased by discontinuation of ingestion | – | –
3 | CC1=C(/C=C/C(C)=C/C=C/C(C)=C/C=C/C=C(C)/C=C/C=C(C)/C=C/C2=C(C)CCCC2(C)C)C(C)(C)CCC1 [β-carotene] | – | – | obviously increased in the two volunteers who ingested the supplement compared with one volunteer without ingestion, and decreased by discontinuation of ingestion | could not be detected | positive correlation
